From the NIST ThermoML archive (doi:10.1016/j.fluid.2017.12.001)

Experiment: xn = mol fraction of the nth substance listed
Details: 100.9 kPa, Liquid; for viscosity: Concentric cylinders viscometry; for speed of sound: Single path-length method; for mass density: Vibrating tube method

CCCC(=O)[O-].CC[NH2+]CC [diethylammonium butanoate] + O
Details	mass density [kg/m3]	speed of sound [m/s]	viscosity [mPa·s]
283.15 K, x1 = 0.0122	–	–	2.24
283.15 K, x1 = 0.0123	1003.65	1576.3	–
283.15 K, x1 = 0.0451	–	–	6.91
283.15 K, x1 = 0.0453	1013.08	1794.6	–
283.15 K, x1 = 0.0999	–	–	19.26
283.15 K, x1 = 0.1005	1011.54	1814.6	–
283.15 K, x1 = 0.143	–	–	32.03
283.15 K, x1 = 0.1439	1001.71	1786.4	–
283.15 K, x1 = 0.2051	–	–	56.72
283.15 K, x1 = 0.2067	989.91	1733.5	–
283.15 K, x1 = 0.3064	–	–	106.48
283.15 K, x1 = 0.3096	976.25	–	–
283.15 K, x1 = 0.4879	–	–	158.58
283.15 K, x1 = 0.4951	956.67	1577.4	–
283.15 K, x1 = 0.6684	–	–	158.29
283.15 K, x1 = 0.6812	941.81	1516.2	–
283.15 K, x1 = 0.7974	930.25	1494.8	–
283.15 K, x1 = 0.974	925.8	1460.5	130.18
285.65 K, x1 = 0.0122	–	–	2.07
285.65 K, x1 = 0.0451	–	–	6.16
285.65 K, x1 = 0.0999	–	–	16.84
285.65 K, x1 = 0.143	–	–	27.94
285.65 K, x1 = 0.2051	–	–	49.1
285.65 K, x1 = 0.3064	–	–	91.1
285.65 K, x1 = 0.4879	–	–	135.58
285.65 K, x1 = 0.6684	–	–	135.69
285.65 K, x1 = 0.974	–	–	112.13
288.15 K, x1 = 0.0122	–	–	1.91
288.15 K, x1 = 0.0123	1002.55	1586.3	–
288.15 K, x1 = 0.0451	–	–	5.5
288.15 K, x1 = 0.0453	1010.64	1786.6	–
288.15 K, x1 = 0.0999	–	–	14.79
288.15 K, x1 = 0.1005	1007.9	1802.4	–
288.15 K, x1 = 0.143	–	–	24.41
288.15 K, x1 = 0.1439	996.76	1773	–
288.15 K, x1 = 0.2051	–	–	42.55
288.15 K, x1 = 0.2067	985.95	1718.7	–
288.15 K, x1 = 0.3064	–	–	78.15
288.15 K, x1 = 0.3096	972.8	–	–
288.15 K, x1 = 0.4879	–	–	116.04
288.15 K, x1 = 0.4951	952.3	1561.4	–
288.15 K, x1 = 0.6684	–	–	116.61
288.15 K, x1 = 0.6812	938.34	1499.7	–
288.15 K, x1 = 0.7974	926.65	1479.8	–
288.15 K, x1 = 0.974	922.1	1448.3	96.9
290.65 K, x1 = 0.0122	–	–	1.77
290.65 K, x1 = 0.0451	–	–	4.96
290.65 K, x1 = 0.0999	–	–	13.09
290.65 K, x1 = 0.143	–	–	21.48
290.65 K, x1 = 0.2051	–	–	37.08
290.65 K, x1 = 0.3064	–	–	67.44
290.65 K, x1 = 0.4879	–	–	99.81
290.65 K, x1 = 0.6684	–	–	100.54
290.65 K, x1 = 0.974	–	–	84.07
293.15 K, x1 = 0.0122	–	–	1.64
293.15 K, x1 = 0.0123	1001.45	1594.8	–
293.15 K, x1 = 0.0451	–	–	4.49
293.15 K, x1 = 0.0453	1008.2	1779.5	–
293.15 K, x1 = 0.0999	–	–	11.64
293.15 K, x1 = 0.1005	1004.13	1789.3	–
293.15 K, x1 = 0.143	–	–	18.97
293.15 K, x1 = 0.1439	992.35	1759.3	–
293.15 K, x1 = 0.2051	–	–	32.47
293.15 K, x1 = 0.2067	984.2	1705.2	–
293.15 K, x1 = 0.3064	–	–	58.44
293.15 K, x1 = 0.3096	969.35	1629.1	–
293.15 K, x1 = 0.4879	–	–	86.09
293.15 K, x1 = 0.4951	949.58	1539.3	–
293.15 K, x1 = 0.6684	–	–	87.06
293.15 K, x1 = 0.6812	937.26	1485.3	–
293.15 K, x1 = 0.7974	923.05	1464.7	–
293.15 K, x1 = 0.974	918.5	1433.9	73.19
295.65 K, x1 = 0.0122	–	–	1.53
295.65 K, x1 = 0.0451	–	–	4.05
295.65 K, x1 = 0.0999	–	–	10.38
295.65 K, x1 = 0.143	–	–	16.84
295.65 K, x1 = 0.2051	–	–	28.55
295.65 K, x1 = 0.3064	–	–	50.88
295.65 K, x1 = 0.4879	–	–	74.58
295.65 K, x1 = 0.6684	–	–	75.69
295.65 K, x1 = 0.974	–	–	63.97
298.15 K, x1 = 0.0122	–	–	1.43
298.15 K, x1 = 0.0123	1000.1	1601.8	–
298.15 K, x1 = 0.0451	–	–	3.69
298.15 K, x1 = 0.0453	1005.56	1770.9	–
298.15 K, x1 = 0.0999	–	–	9.31
298.15 K, x1 = 0.1005	1000.56	1776.6	–
298.15 K, x1 = 0.143	–	–	15.02
298.15 K, x1 = 0.1439	988.22	1745.3	–
298.15 K, x1 = 0.2051	–	–	25.19
298.15 K, x1 = 0.2067	979.99	1690.3	–
298.15 K, x1 = 0.3064	–	–	44.32
298.15 K, x1 = 0.3096	965.6	1613.5	–
298.15 K, x1 = 0.4879	–	–	64.82
298.15 K, x1 = 0.4951	945.79	1523.9	–
298.15 K, x1 = 0.6684	–	–	66.04
298.15 K, x1 = 0.6812	933.71	1468.9	–
298.15 K, x1 = 0.7974	919.45	1455.8	–
298.15 K, x1 = 0.974	914.7	1417.5	56.14
300.65 K, x1 = 0.0122	–	–	1.34
300.65 K, x1 = 0.0451	–	–	3.36
300.65 K, x1 = 0.0999	–	–	8.4
300.65 K, x1 = 0.143	–	–	13.44
300.65 K, x1 = 0.2051	–	–	22.34
300.65 K, x1 = 0.3064	–	–	38.93
300.65 K, x1 = 0.4879	–	–	56.68
300.65 K, x1 = 0.6684	–	–	57.86
300.65 K, x1 = 0.974	–	–	49.5
303.15 K, x1 = 0.0122	–	–	1.26
303.15 K, x1 = 0.0123	998.8	1607.5	–
303.15 K, x1 = 0.0451	–	–	3.08
303.15 K, x1 = 0.0453	1002.83	1762.1	–
303.15 K, x1 = 0.0999	–	–	7.62
303.15 K, x1 = 0.1005	997.23	1763.5	–
303.15 K, x1 = 0.143	–	–	12.08
303.15 K, x1 = 0.1439	984.45	1731.1	–
303.15 K, x1 = 0.2051	–	–	19.91
303.15 K, x1 = 0.2067	976.3	1675.2	–
303.15 K, x1 = 0.3064	–	–	34.33
303.15 K, x1 = 0.3096	960.9	1597.6	–
303.15 K, x1 = 0.4879	–	–	49.68
303.15 K, x1 = 0.4951	941.96	1509.1	–
303.15 K, x1 = 0.6684	–	–	50.88
303.15 K, x1 = 0.6812	930.52	1452.3	–
303.15 K, x1 = 0.7974	915.75	1439.9	–
303.15 K, x1 = 0.974	910.9	1400.2	43.73
305.65 K, x1 = 0.0122	–	–	1.19
305.65 K, x1 = 0.0451	–	–	2.84
305.65 K, x1 = 0.0999	–	–	6.89
305.65 K, x1 = 0.143	–	–	10.89
305.65 K, x1 = 0.2051	–	–	17.8
305.65 K, x1 = 0.3064	–	–	30.43
305.65 K, x1 = 0.4879	–	–	43.74
305.65 K, x1 = 0.6684	–	–	44.91
305.65 K, x1 = 0.974	–	–	38.76
308.15 K, x1 = 0.0122	–	–	1.12
308.15 K, x1 = 0.0123	–	1611.9	–
308.15 K, x1 = 0.0451	–	–	2.62
308.15 K, x1 = 0.0453	–	1753.1	–
308.15 K, x1 = 0.0999	–	–	6.28
308.15 K, x1 = 0.1005	–	1750.2	–
308.15 K, x1 = 0.143	–	–	9.83
308.15 K, x1 = 0.1439	–	1716.8	–
308.15 K, x1 = 0.2051	–	–	15.99
308.15 K, x1 = 0.3064	–	–	27.04
308.15 K, x1 = 0.4879	–	–	38.47
308.15 K, x1 = 0.6684	–	–	39.77
308.15 K, x1 = 0.974	–	–	34.5
